Data from patent US5219867A, “Platelet aggregation inhibitory agents” (priority 1992, dated 1993).
Entries after “also recorded” stand apart in the source; their conditions may differ. Counter-ions that a name gives are not always drawn. Like-named read-outs stand apart in the source and are kept apart here.

Key:
[1] = test system: human blood platelets; assay: In vitro inhibition of ADP-induced human platelet aggregation (platelet-rich plasma, aggregometer); assay type: cell-based; details: for IC50: Homo sapiens, Platelet; for Potency in inhibiting aggregation relative to rac-I: in vitro platelet aggregation
Procedure: Procedure for Determining In Vitro Platelet Aggregation-Inhibitory Activity. Adenosine diphosphate (ADP) was used to induce platelet aggregation and was utilized as the sodium salt. A 10 mM stock solution was prepared fresh before each use in modified Tyrode's buffer and working dilutions were prepared with modified Tyrode's buffer immediately prior to use. The buffer contained NaCl (137.00 mM), KCl (2.70 mM), NaHCO3 (11.90 mM), NaH2 PO4 H2 O (0.36 mM) and glucose (5.60 mM) in redistilled water. Adjustment to pH 7.4 was effected by addition of 1N HCl.
The blood was transferred into plastic centrifuge tubes containing 3.2% sodium citrate (blood/citrate ratio 8:1) and centrifuged at 120Xg for 15 minutes at 23° C., yielding platelet-rich plasma (PRP); platelet-poor-plasma (PPP) was obtained by centrifugation of citrated whole blood at 1,100Xg for 15 min at 23° C. The platelet count of PRP was determined and adjusted to a final count of 300,000 platelet per mm^3 by dilution with autologous PPP. […] The plasma so obtained was transferred using a 1.0 ml Centaur pipette into a 50 ml polyethylene centrifuge tube. In order to maintain plasma pH in the appropriate range, the air in the tubes are displaced gently (2 minutes) with a 5% (CO2 -95% air (v/v) mixture and the tube capped. The plasma was maintained at 37° C. in a water bath until used in the aggregation experiments.
Assays of platelet aggregation were performed at least in duplicate, using plasma acquired from different donors, employing a method developed by Quintana, et al. (Quintana, et al., Relationships Between the Chemical Constitution of Carbamoylpiperidines and Related Compounds, and Their Inhibition of ADP-Induced Human Blood Platelet Aggregation, Thromb. Res. Vol. 22, Pages 665-680, 1981); Quintana, et al., Effects of Ethanol and of Other Factors on ADP-Induced Aggregation of Human Blood Platelets in Vitro, Thromb. Res., Vol. 20, Pages 405-415, 1980) (cf. Born, Nature, Vol. 194, Pages 927-929, 1962) and Mustard, et al., J. Lab. Clin. Med., Vol. 64, Pages 548-559, 1964).
Initially, in each experiment, 0.45-ml aliquots of PRP were placed in siliconized cuvettes and stirred (1,100 rpm) in the aggregometer at 37° C. to ascertain the absence of spontaneous aggregation. Appropriate ADP solutions (50 μl) were subsequently injected using a Hamilton microliter syringe to determine the minimal concentration eliciting maximal biphasic aggregation. […] In each case, the concentration of ADP so determined was used in eliciting aggregation throughout each specific set of aggregometric evaluations.
0.5 μl of a solution of the evaluant compound in redistilled 95% ethanol was injected into a stirred ([…]) 0.4-ml aliquot of plasma in a siliconized cuvette in the aggregometer-well (37° C). After 15 seconds, the cuvette was transferred to an incubator (also at 37° C.) and the contents held at this temperature, without stirring, until 2 minutes postinjection. The cuvette was then returned to the aggregometer-well, a base-line being recorded for 2 minutes to detect any spontaneous aggregation. At exactly 4 minutes after injection of the evaluant solution, 50 μl of the appropriate ADP solution was injected and aggregation recorded for 5.5 minutes. Evaluants were studied at least 4 different concentrations. Control experiments (ethanol in a final concentration of 0.095% v/v) were performed in conditions parallel with those involving the respective evaluants, and were initiated either 1 minute prior to or 1 minute after the start of experiments employing the test compounds. This permitted injections to be made precisely at the specified times.

[2] = test system: human platelets; assay: Inhibition of collagen-induced aggregation, washed aequorin-loaded platelet suspension; assay type: cell-based; details: for IC50: Homo sapiens, Platelet, collagen-induced aggregation (n = 4), HEPES-buffered saline, 1.0 mM CaCl2, read-out: Ia50 ± S.E. Collagen-induced
Procedure: Procedure for Cytosolic Ionized Calcium Determination. The basic procedure of Yamaguchi, et al. (Thromb. Res., Vol. 44, Pages 165-174, 1986) was followed. Blood was collected from six blood donors, aged 24-38 years, who had fasted overnight and affirmed abstinence from alcohol, caffeine and medications of any kind for a period of at least one week prior to donation. […] Platelets were collected (800 g, 15 min), resuspended in and washed (800 g, 15 min) with HEPES-buffered saline (140 mM NaCl, 2.7 mM KCl, 0.1% bovine albumin, 0.5% glucose, 3.8 mM HEPES, pH 7.6) with EGTA (5 mM) and PGE1 (1 μM). The platelet pellet was resuspended in 90 μl of the same buffer and added to 20μl of 3 mg/ml aequorin solution in a 1.5 ml Eppendorf centrifuge tube. Six 1 μl aliquots of DMSO were added at 90 second intervals with brief, gentle mixing on a Vortex mixer and the platelet suspension was incubated 2 minutes after the last addition. One ml of HEPES-buffered saline was added, gently mixed, and again incubated for 2 minutes. The platelets were pelleted (1000 g, 30 sec), resuspended in HEPES-buffered saline to which was added either 1 mM Mg Cl2, (calcium-free buffer) or 1 mM Mg Cl2 and 1 mM Ca Cl2 (calcium buffer), depending on the experiment. The platelet count was adjusted to 3-4×10^5 platelets/μl.
The Platelet Ionized Calcium Aggregometer (Chrono-Log Corp., Ltd., Havertown, Pa.) was used to obtain simultaneous aggregation and luminescence data under the following experimental conditions: (1) platelet suspension, 1 ml, was equilibrated at 37° C. with stirring at 1100 rpm; (2) 100 μl (1.2 μg) of fibrinogen was added; (3) the vehicle (95% ethanol) or the test compound in vehicle was added; (4) when needed, 10 μl of the desired concentration of EGTA was added 30 seconds prior to addition of the agonist; then (5) the agonist (Collagen, 5 μg or 20 μg) was added and the time noted. At one minute after addition of the agonist in Channel 1, a platelet sample containing fibrinogen in Channel 2 was lysed with 10 μl of a 1:1 solution of Triton X-100 (final concentration 0.005%) 10 mM CaCl2 (final concentration 0.5 mM). Treated and control […] data were corrected for time dependent decay of fluorescence using data from the untreated lysed controls.
Normally 4 compound-treated samples (at 4 different concentrations) interspersed with 3 control samples were evaluated at 4.5 minute intervals starting 18-23 minutes after the DMSO treatment. The Ia50 values were calculated as described earlier. The compound concentrations effecting 50% inhibition (Ica50) of collagen-induced cytosolic ionized calcium values was determined by linear regression analysis.
Compounds I-rac, (+)-I,(IC) and (-)-I(IA) were evaluated. The Ia50 (collagen-induced aggregation) and Ica50 (compound concentration required to inhibit by 50% the collagen-induced rise in cytosolic ionized calcium)values determined with platelet suspensions in HEPES-buffered saline containing 1.0 mM CaCl2 were as follows: […]

SMILES	IC50 ([1]; read-out: IC50 (compound concentration which inhibits ADP-induced platelet aggregation by 50%) ± S.E., racemic compounds, ADP-induced)	IC50 ([1]; read-out: Ia50 (compound concentrations affecting 50% inhibition of aggregation) ± S.E., Table II, ADP-induced, n = 5 for (0)I and 6 for all others)	IC50 ([1]; read-out: Ia50 ± S.E. ADP-Induced, table 3, ADP-induced (n = 5-6))	IC50 [2]	Potency in inhibiting aggregation relative to (-)-I (antipode) ([1]; ADP as agonist, in vitro)	IC50 ([1]; Table II, ADP-induced, n = 5 for (0)I and 6 for all others, read-out: Ia50 (compound concentrations affecting 50% inhibition of aggregation) ± S.E.)	IC50 ([1]; table 3, ADP-induced (n = 5-6), read-out: Ia50 ± S.E. ADP-Induced)	Activity as a platelet aggregation inhibitor, in words ([1]; as compared to racemic (I) / other stereoisomers, listed as (+) enantiomer, dihydrobromide)	Potency in inhibiting aggregation relative to rac-I ([1]; dihydrobromide)	Potency in inhibiting aggregation relative to rac-I ([1]; listed as (+) enantiomer of Compound I, dihydrobromide)	Potency in inhibiting aggregation relative to (-)-I ([2]; collagen as agonist, in vitro)
CCN(CC)C(=O)C1CCCN(Cc2ccc(CN3CCCC(C(=O)N(CC)CC)C3)cc2)C1 (racemic) [Compound I, α-α'-Bis[3-(N,N-diethyl-carbamoyl)piperidino]-p-xylene dihydrobromide]	44.5 ± 12.7 µM	44.5 ± 127 µM	44.5 µM	20.2 µM	–	–	–	–	–	–	–
CCN(CC)C(=O)C1CCCN(Cc2ccc(CN3CCCC(C(=O)N(CC)CC)C3)cc2)C1 (single isomer, unassigned) [IC, α-α'-Bis(3-N,N-diethylcarbamoyl)piperidino]-p-xylene dihydrobromide]	–	–	–	10.7 ± 2.7 µM	15 times	15.3 ± 3.9 µM	15.3 ± 3.9 µM	unexepectedly superior activity; also recorded: possesses most of the therapeutic activity	three times more potent	two to three times more potent	18 times
